Reference: PMC3914206

Assays:
panel of 442 kinases [1] = target: T1, panel of 442 kinases (Homo sapiens, UniProt O94768); format: binding; settings: Compound Concentration 10 µM
T1 construct: purchased KINOMEscan
T1 sequence (O94768 1-372): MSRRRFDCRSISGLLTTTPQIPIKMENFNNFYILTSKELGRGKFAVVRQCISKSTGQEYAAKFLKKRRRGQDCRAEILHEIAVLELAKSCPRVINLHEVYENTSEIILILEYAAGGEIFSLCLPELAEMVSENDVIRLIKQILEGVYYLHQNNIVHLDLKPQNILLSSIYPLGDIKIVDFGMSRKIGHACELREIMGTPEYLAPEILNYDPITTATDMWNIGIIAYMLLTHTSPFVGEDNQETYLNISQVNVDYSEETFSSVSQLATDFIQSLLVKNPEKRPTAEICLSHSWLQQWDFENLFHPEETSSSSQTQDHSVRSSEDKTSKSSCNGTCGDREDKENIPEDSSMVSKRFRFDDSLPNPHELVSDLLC
Excerpt: (§1) We assessed the selectivity of members of this scaffold using the KINOMEscan methodology across a near comprehensive panel of 442 kinases [[18,27]].

panel of 442 kinases [2] = target: T2, panel of 442 kinases (Homo sapiens, UniProt P10721, T670I/V559D); format: binding; settings: Compound Concentration 10 µM
T2 construct: purchased KINOMEscan
T2 sequence (P10721 26-976 V559D/T670I): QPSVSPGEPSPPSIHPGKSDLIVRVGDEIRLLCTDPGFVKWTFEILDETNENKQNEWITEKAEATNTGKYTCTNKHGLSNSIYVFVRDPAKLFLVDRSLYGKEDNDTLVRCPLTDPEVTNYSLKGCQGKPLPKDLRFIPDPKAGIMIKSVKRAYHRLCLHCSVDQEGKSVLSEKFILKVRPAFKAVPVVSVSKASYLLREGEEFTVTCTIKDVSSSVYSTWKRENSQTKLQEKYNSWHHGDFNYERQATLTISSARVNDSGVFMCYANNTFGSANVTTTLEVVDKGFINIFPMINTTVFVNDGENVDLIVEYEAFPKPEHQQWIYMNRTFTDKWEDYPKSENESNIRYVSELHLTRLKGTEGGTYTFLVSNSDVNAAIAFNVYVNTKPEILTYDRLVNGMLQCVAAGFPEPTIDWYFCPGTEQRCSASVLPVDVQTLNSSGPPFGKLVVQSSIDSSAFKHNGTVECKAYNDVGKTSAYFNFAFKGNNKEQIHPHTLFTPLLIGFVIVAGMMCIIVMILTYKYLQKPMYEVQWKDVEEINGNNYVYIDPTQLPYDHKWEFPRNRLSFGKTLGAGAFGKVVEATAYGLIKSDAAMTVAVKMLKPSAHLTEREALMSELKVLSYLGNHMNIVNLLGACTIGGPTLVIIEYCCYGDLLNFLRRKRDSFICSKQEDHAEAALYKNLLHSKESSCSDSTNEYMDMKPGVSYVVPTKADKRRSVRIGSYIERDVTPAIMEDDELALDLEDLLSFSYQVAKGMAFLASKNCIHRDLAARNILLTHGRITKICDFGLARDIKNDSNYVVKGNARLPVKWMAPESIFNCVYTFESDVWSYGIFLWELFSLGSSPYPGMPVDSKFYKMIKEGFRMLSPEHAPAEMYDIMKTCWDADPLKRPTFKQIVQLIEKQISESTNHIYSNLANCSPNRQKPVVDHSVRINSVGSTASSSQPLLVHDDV
Excerpt: as §1

With `COc1cc(C(=O)N2CCC(N3CCN(C)CC3)CC2)ccc1Nc1ncc2c(n1)N(C1CCCC1)c1ccccc1C(=O)N2C` [Compound 25, 11-cyclopentyl-2-((2-methoxy-4-(4-(4-methylpiperazin-1-yl)piperidine-1-carbonyl)phenyl)amino)-5-methyl-5H-benzo[e]pyrimido[5,4-b][1,4]diazepin-6(11H)-one] as the molecule, how does the “KINOMEscan: DRAK2” value (panel of 442 kinases [1]) read?
Its value is 100.

What about the “KINOMEscan: KIT(V559D,T670I)” value (panel of 442 kinases [2]) of the same molecule?
The value was 80.

For `CCOc1cc(C(=O)N2CCC(N3CCN(C)CC3)CC2)ccc1Nc1ncc2c(n1)N(C1CCCC1)c1ccccc1C(=O)N2C` [Compound 26], which “KINOMEscan: DRAK2” value (panel of 442 kinases [1]) is on record?
The value was 100.

What about the “KINOMEscan: KIT(V559D,T670I)” value (panel of 442 kinases [2]) of the same molecule?
The value was 100.

Which results are given for `COc1cc(C(=O)N2CCC(N3CCN(C)CC3)CC2)ccc1Nc1ncc2c(n1)N(C)c1ccccc1C(=O)N2C` [15 (LRRK2-IN-1)]?
KINOMEscan: DRAK2 (panel of 442 kinases [1]): 93; KINOMEscan: KIT(V559D,T670I) (panel of 442 kinases [2]): 81
